Source: PubChem BioAssay (NCI)
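Five concentrations, 48 hours, 96-well plates. The concentration for full growth arrest is given as TGI.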

Experiments:
Experiment in all cases: inhibition of tumour cell growth, NCI panel, 48 h
[1] = system: BT-549 breast
[2] = system: CCRF-CEM leukemia
[3] = system: EKVX NSCLC
[4] = system: HOP-62 NSCLC
[5] = system: NCI-H226 lung
[6] = system: NCI/ADR-RES ovarian
[7] = system: SF-295 CNS
[8] = system: SN12C renal
[9] = system: UACC-257 melanoma
[10] = system: UO-31 renal

| Structure (SMILES) | TGI [1] [µM] | TGI [2] [µM] | TGI [3] [µM] | TGI [4] [µM] | TGI [5] [µM] | TGI [6] [µM] | TGI [7] [µM] | TGI [8] [µM] | TGI [9] [µM] | TGI [10] [µM] |
| --- | --- | --- | --- | --- | --- | --- | --- | --- | --- | --- |
| Clc1ccc(N=C/C=C/Nc2ccc(Cl)cn2)nc1 | 31 | 9.41 | 13.9 | 31 | 31.2 | 32.6 | 30.6 | 28.6 | 32.3 | 29.2 |
| CCOC(=O)/C(C#N)=C/c1ccc2c(-c3c(OCC)ccc4cc(/C=C(\C#N)C(=O)OCC)ccc34)c(OCC)ccc2c1 | > 100 | > 100 | > 100 | > 100 | > 100 | > 100 | > 100 | > 100 | > 100 | > 100 |
| CC(=O)N=C(N=Nc1c(O)[nH]c2ccc(C)cc12)NC(C)=O | > 100 | > 100 | > 100 | > 100 | > 100 | > 100 | > 100 | > 100 | > 100 | > 100 |
| COc1cc(NS(C)(=O)=O)ccc1NCc1cnc2ccc3[nH]c(C)ccc3c12 | > 100 | 67.2 | > 100 | > 100 | > 100 | > 100 | > 100 | > 100 | > 100 | 60.6 |
| COc1c2c(c(OC)c3c1c(=O)c1ccccc1n3C)OCO2 | > 100 | > 31.6 | > 100 | > 100 | > 100 | > 100 | > 100 | > 100 | > 100 | > 100 |
| CSC(SC)=C1CC(=O)Nc2ccccc2C1=O | > 100 | 52.7 | > 100 | > 100 | > 100 | > 100 | > 100 | > 100 | > 100 | > 100 |
| C[C@]12CC[C@@H]3c4ccc(O)cc4CC[C@H]3[C@@H]1C/C(=C\c1ccc([N+](=O)[O-])cc1)C2=O | > 100 | > 100 | > 100 | > 100 | > 100 | > 100 | > 100 | > 100 | > 100 | > 100 |
| Brc1cccc(/C=C/CN2CCN(CCOC(c3ccccc3)c3ccccc3)CC2)c1 | 31.1 | 29.5 | 40.8 | 30.1 | 38.2 | 30.4 | 32.6 | 32.3 | 33.4 | 27.7 |
| O=c1c2ccccc2nc2n1NC(c1c(Cl)cccc1Cl)N2c1cccc(Cl)c1 (stereo not given) | > 100 | > 100 | > 100 | > 100 | 6.36 | 68.5 | > 100 | 21.9 | > 100 | 7.39 |
| CCOc1c2ccsc2c(OCC)c2ccsc12 | > 100 | > 100 | > 100 | > 100 | > 100 | > 100 | 9.84 | > 100 | > 100 | > 100 |
| Cc1[nH]c2ncn3nc(C(Cl)(Cl)Cl)nc3c2c1Cc1ccccc1 | > 100 | > 100 | > 100 | > 100 | > 100 | > 100 | > 100 | > 100 | > 100 | 23.3 |
| COc1ccc(OC)c(C2CCc3nc4nc(N)nc(N)c4cc3C2)c1 (stereo not given) | 16.6 | 9.44 | 28.1 | 5.04 | 30.7 | > 100 | 26.5 | 3.33 | 6.1 | 15.8 |
| Cc1c(N2C(=O)/C(=C/C=C/c3ccccc3)N=C2c2ccccc2)c(=O)n(-c2ccccc2)n1C | 40.2 | 99.2 | 36.5 | 85.3 | 58.4 | 55 | 40 | 69 | 42.1 | 32.6 |
| C=C(O)c1ccccc1C#Cc1ccccc1C(=O)OC | > 10 | > 10 | > 10 | > 10 | > 10 | > 10 | > 10 | > 10 | > 10 | > 10 |
| CNc1ncnc(Sc2nc(N)nc3nc[nH]c23)c1[N+](=O)[O-] | 20.1 | 0.892 | 47 | > 100 | > 100 | 34.4 | > 100 | 11.9 | 13 | 13.9 |
| CC(C)=CCC[C@]1(C)CC[C@]2(C)C3CCC(=C(C)C)[C@@H](CCCO)[C@]3(C)CC[C@@]2(C)C1 (stereo not given in full) | > 100 | > 100 | > 100 | > 100 | > 100 | > 100 | > 100 | > 100 | 77.1 | 34 |
| Cc1ccc(Nc2nc(=S)[nH]c3[nH]ncc23)cc1 | > 100 | > 100 | > 100 | > 100 | > 100 | > 100 | > 100 | > 100 | > 100 | > 100 |
| OC1(c2ccccc2)CC2CCC(C1)N2CCc1ccccc1 (stereo not given) | > 100 | > 100 | > 100 | > 100 | > 100 | > 100 | > 100 | > 100 | 59.1 | > 100 |
| Cc1cc2nc3n[nH]c(N)c3nc2cc1C | > 100 | > 100 | > 100 | > 100 | > 100 | > 100 | > 100 | > 100 | > 100 | > 100 |
| C/C(=N/NC(=S)Nc1ccccc1Cl)c1ccccn1 | 19.9 | 1.1 | 7.15 | 12.4 | 1.65 | 6.53 | 9.57 | 8.4 | 1.07 | 12.3 |
| CN(C)c1nc(N(C)C)nc(N(C)C)n1 | > 150 | > 150 | > 150 | > 142 | > 150 | > 150 | > 150 | > 150 | > 150 | > 150 |
| CN(C)CCCNc1c(O)c2c(c(O)c1Cl)C(=O)C=CC2=O | 2.94 | 5.7 | > 10 | 7.87 | > 10 | 5.38 | 3.27 | 3.2 | 3.71 | > 10 |
| O=C(c1ccccc1)c1ccc(C(c2c(O)c3ccccc3oc2=O)c2c(O)c3ccccc3oc2=O)cc1 | 48.9 | > 81.2 | 72.3 | > 57.3 | 55 | 62.5 | 53.3 | > 77.2 | 49.5 | 33 |
| Cn1c(=O)oc2cc(C(=O)CSC(=S)N3CCCCCC3)ccc21 | > 100 | > 100 | > 100 | > 100 | > 100 | > 100 | > 100 | > 100 | > 100 | > 100 |
